Values quoted from earlier work in patent US20260263463A1, “FORMULATIONS OF DANICOPAN AND METHODS OF USE THEREOF” (Alexion Pharmaceuticals, Inc., priority 2023, published 2026).

Settings: doses of up to 1,600 mg; cited from earlier work

In the case of `CC(=O)c1nn(CC(=O)N2C[C@H](F)C[C@H]2C(=O)Nc2cccc(Br)n2)c2ccc(-c3cnc(C)nc3)cc12` [Danicopan, danicopan], the adverse effects is listed as “no adverse effects”.
